The values below come from ChEMBL document CHEMBL1124419, “Potential tumor- or organ-imaging agents. 29. Radioiodinated esters and amides of 20-hydroxy- and 20-aminopregn-5-en-3 beta-ols” (J Med Chem, 1989).

Conditions in all cases: in vivo
Series [1] concerns Rattus norvegicus. As to the kind of experiment: Concentration accumulated in thyroid at 0.5 hr after intravenous administration in rat. Type of series: ADME, organism-based, Thyroid gland.
Series [2] deals with Rattus norvegicus. In words: Concentration accumulated in thyroid at 24 hr r after intravenous administration in rat. Type of series: ADME, organism-based, Thyroid gland.
In series [3] the test system is Rattus norvegicus. As to the kind of experiment: Concentration accumulated in adrenal cortex at 24 hr r after intravenous administration in rat. The series is classed as ADME, organism-based.
Series [4] concerns Rattus norvegicus. In words: Concentration accumulated in blood at 0.5 hr after intravenous administration in rat. Type of series: ADME, organism-based.
For series [5], the system named is Rattus norvegicus. As to the kind of experiment: Concentration accumulated in blood at 24 hr r after intravenous administration in rat. Type of series: ADME, organism-based.
Series [6] concerns Rattus norvegicus. In words: Concentration accumulated in kidney at 0.5 hr after intravenous administration in rat. The series is classed as ADME, organism-based.
Series [7] deals with Rattus norvegicus. As to the kind of experiment: Concentration accumulated in kidney at 24 hr r after intravenous administration in rat. The series is classed as ADME, organism-based.
Series [8] has as its system Rattus norvegicus. As to the kind of experiment: Concentration accumulated in liver at 0.5 hr after intravenous administration in rat. The series is classed as ADME, organism-based.
Series [9] concerns Rattus norvegicus. As to the kind of experiment: Concentration accumulated in liver at 24 hr r after intravenous administration in rat. Type of series: ADME, organism-based.
Series [10] has as its system Rattus norvegicus. As to the kind of experiment: Concentration accumulated in ovary at 0.5 hr after intravenous administration in rat. Type of series: ADME, organism-based, Female gonad.
Series [11] concerns Rattus norvegicus. In words: Concentration accumulated in ovary at 24 hr r after intravenous administration in rat. Type of series: ADME, organism-based, Female gonad.
Series [12] concerns Rattus norvegicus. As to the kind of experiment: Concentration accumulated in adrenal cortex at 0.5 hr after intravenous administration in rat. Type of series: ADME, organism-based.

With `C[C@H](OC(=O)c1ccccc1I)C1CCC2C3CC=C4CC(O)CCC4(C)C3CCC21C` (stereo not given in full), the Dose/g in series [1] was determined as 4.96%; in series [2] it was 511.17%; in [3], 0.31%; in series [4], 0.59%; in series [5] it was 0.05%; in [6], 1.29%. The Dose/g in series [7] was determined as 0.11%; in series [8] it was 3.92%; in series [9] it was 0.2%; in series [10] it was 1.49%; in [11] it was 0.26%; in series [12], 10.04%.
In the case of `C[C@H](NC(=O)c1ccccc1I)C1CCC2C3CC=C4CC(O)CCC4(C)C3CCC21C` (stereo not given in full), the Dose/g in series [1] is reported as 2.2%; in series [2] it was 51.14%; in series [3] it was 0.1%; in series [4], 0.1%; in series [5], less than 0.01%; in [6], 0.41%. Also, the Dose/g came out at 0.01% in series [7]; 3.85% in [8]; 0.06% in series [9]; 0.58% in [10]; 0.09% in series [11]; 2.49% in series [12].
`C[C@@H](OC(=O)c1ccccc1I)C1CCC2C3CC=C4CC(O)CCC4(C)C3CCC21C` (stereo not given in full): the Dose/g in series [1] was determined as 2.93%; in series [2], 52.36%; in series [3] it was 1.23%; in [4] it was 0.25%; in series [5], 0.02%; in [6], 1.59%. The Dose/g in [7] worked out at 0.05%; in [8] it was 6.04%; in series [9] it was 0.11%; in series [10], 1.67%; in [11] it was 0.26%; in [12], 6.83%.
Regarding `C[C@@H](NC(=O)c1ccccc1I)C1CCC2C3CC=C4CC(O)CCC4(C)C3CCC21C` (stereo not given in full), the Dose/g in series [1] was 1.4%; in [2], 24.65%; in series [3], 0.55%; in series [4], 0.08%; in series [5], less than 0.01%; in series [6] it was 0.47%. Further, the Dose/g in series [7] came out at 0.02%; in series [8] it was 1.28%; in series [9], 0.22%; in [10], 0.53%; in series [11] it was 0.07%; in series [12] it was 1.66%.
Take `CC(C)CCCC(C)C1CCC2C3CC(CI)C4=C(CCC(O)C4)C3CCC12C` (stereo not given): the Dose/g in [1] is on record as 1.37%; in series [2] it was 111.3%; in [3] it was 116.21%; in series [4], 2.35%; in [5] it was 0.87%; in series [6] it was 0.45%. In addition, the Dose/g in [7] is reported as 0.76%; in series [8], 4.57%; in series [9] it was 1.34%; in series [10], 4.1%; in series [11] it was 33.1%; in series [12], 17.89%.
